The values that follow are results of earlier work, collected in patent US20230149379A1, “COMBINATION THERAPY FOR ACUTE MYELOID LEUKEMIA” (Celgene Corporation, priority 2020, published 2023).

The test system of one series is R/R AML. Conditions: stepwise dosing.
For a further series, the system named is AML at relapse. To be noted: administered alone.

As to `CC1(C)CCC(CN2CCN(c3ccc(C(=O)NS(=O)(=O)c4ccc(NCC5CCOCC5)c([N+](=O)[O-])c4)c(Oc4cnc5[nH]ccc5c4)c3)CC2)=C(c2ccc(Cl)cc2)C1` [Venetoclax, 4-[4-[[2-(4-chlorophenyl)-4,4-dimethylcyclohexen-1-yl]methyl]piperazin-1-yl]-N-[3-nitro-4-(oxanylmethylamino)phenyl]sulfonyl-2-(1H-pyrrolo[2,3-b]pyridin-5-yloxy)benzamide], the tumor lysis syndrome result with R/R AML is “did not occur”.

On to “CT-011: anti-PD-1 antibody, a humanized antibody”, for which, in the series with AML at relapse, the “response in treating AML at relapse” value is recorded as “failed to show response”.
